Values joined by “and” are separate entries in the source; they are usually repeats but may differ in a detail not shown here. Equal values may be shown once. Read-outs that look alike come from different tables or passages of the source. Residues, ends and D or L forms follow the SMILES beside them.
What was measured:
human ACE [1] = biological target: human ACE (Homo sapiens, UniProt P12821); assay: In vitro degradation in the presence of human ACE; type: in vitro ADME; conditions: in vitro
Method: (§1) The peptides (100 nM) were incubated with ground rat lung material (at 0.1 mg/ml) or human converting enzyme (5 mU final concentration) in the presence or absence of captopril (10 μM final concentration) in 0.1 M Tris/HCl buffer+0.3 mM NaCl, pH=7.5. A control comprising only the peptides in the presence of 0.1 M Tris/HCl buffer+0.3 mM NaCl, pH=7.5, was carried out.
(§2) A methanol extraction was carried out in order to stop the reaction. At each time, the concentration of the nondegraded peptide was measured by enzyme immunoassay.
(§3) The results were expressed as percentage of peptide assayed relative to the control for each sample time.

human ACE [2] = assay: In vitro degradation in the presence of human ACE; type: in vitro ADME; conditions: human converting enzyme (human ACE), peptide 100 nM, human converting enzyme 5 mU, pH 7.5, read-out: percentage of peptide assayed relative to the control; for remaining at 10 min, 100 nM: T10 min; for remaining at 0.5 h, 100 nM: T30 min; for remaining at 1 h, 100 nM: T60 min; for remaining at 2 h, 100 nM: T120 min; for remaining at 4 h, 100 nM: T240 min
Method: as §1, §2, §3

ACE (rat lung) = test system: T1, ACE (rat lung); assay: In vitro degradation in the presence of rat lung ACE; type: in vitro ADME; conditions: ground rat lung material (rat lung ACE), peptide 100 nM, ground rat lung material 0.1 mg/ml, pH 7.5, read-out: percentage of peptide assayed relative to the control; for remaining at 1 h, 100 nM: T60 min; for remaining at 2 h, 100 nM: T120 min; for remaining at 4 h, 100 nM: T240 min
T1 construct: incubated with ground rat lung material (at 0.1 mg/ml); from tissue; host or cells: rat lung (ground material)
Method: as §1, §2, §3

in vivo = conditions: male, Wistar, rat, iv
[3] = Plasma and urine pharmacokinetics after I.V. bolus in rats; conditions: for % excreted - endog / CLR -endog: endogenous AcSDKP subtracted; for % excreted: urine
[4] = with captopril 10 μM, + captopril 10 μM
[5] = Group 1, i.v. bolus, without captopril, mean
[6] = Group 1, i.v. bolus, without captopril, single rats
[7] = Group 2, i.v. bolus, with captopril, 2-4 h, single rats
[8] = Group 2, i.v. bolus, with captopril, mean
[9] = Group 2, i.v. bolus, with captopril, single rats
[10] = summarizing table, rats, i.v. bolus, with captopril
[11] = summarizing table, rats, i.v. bolus, without captopril

Sequence of human ACE (Homo sapiens, UniProt P12821) (P12821 30-1306): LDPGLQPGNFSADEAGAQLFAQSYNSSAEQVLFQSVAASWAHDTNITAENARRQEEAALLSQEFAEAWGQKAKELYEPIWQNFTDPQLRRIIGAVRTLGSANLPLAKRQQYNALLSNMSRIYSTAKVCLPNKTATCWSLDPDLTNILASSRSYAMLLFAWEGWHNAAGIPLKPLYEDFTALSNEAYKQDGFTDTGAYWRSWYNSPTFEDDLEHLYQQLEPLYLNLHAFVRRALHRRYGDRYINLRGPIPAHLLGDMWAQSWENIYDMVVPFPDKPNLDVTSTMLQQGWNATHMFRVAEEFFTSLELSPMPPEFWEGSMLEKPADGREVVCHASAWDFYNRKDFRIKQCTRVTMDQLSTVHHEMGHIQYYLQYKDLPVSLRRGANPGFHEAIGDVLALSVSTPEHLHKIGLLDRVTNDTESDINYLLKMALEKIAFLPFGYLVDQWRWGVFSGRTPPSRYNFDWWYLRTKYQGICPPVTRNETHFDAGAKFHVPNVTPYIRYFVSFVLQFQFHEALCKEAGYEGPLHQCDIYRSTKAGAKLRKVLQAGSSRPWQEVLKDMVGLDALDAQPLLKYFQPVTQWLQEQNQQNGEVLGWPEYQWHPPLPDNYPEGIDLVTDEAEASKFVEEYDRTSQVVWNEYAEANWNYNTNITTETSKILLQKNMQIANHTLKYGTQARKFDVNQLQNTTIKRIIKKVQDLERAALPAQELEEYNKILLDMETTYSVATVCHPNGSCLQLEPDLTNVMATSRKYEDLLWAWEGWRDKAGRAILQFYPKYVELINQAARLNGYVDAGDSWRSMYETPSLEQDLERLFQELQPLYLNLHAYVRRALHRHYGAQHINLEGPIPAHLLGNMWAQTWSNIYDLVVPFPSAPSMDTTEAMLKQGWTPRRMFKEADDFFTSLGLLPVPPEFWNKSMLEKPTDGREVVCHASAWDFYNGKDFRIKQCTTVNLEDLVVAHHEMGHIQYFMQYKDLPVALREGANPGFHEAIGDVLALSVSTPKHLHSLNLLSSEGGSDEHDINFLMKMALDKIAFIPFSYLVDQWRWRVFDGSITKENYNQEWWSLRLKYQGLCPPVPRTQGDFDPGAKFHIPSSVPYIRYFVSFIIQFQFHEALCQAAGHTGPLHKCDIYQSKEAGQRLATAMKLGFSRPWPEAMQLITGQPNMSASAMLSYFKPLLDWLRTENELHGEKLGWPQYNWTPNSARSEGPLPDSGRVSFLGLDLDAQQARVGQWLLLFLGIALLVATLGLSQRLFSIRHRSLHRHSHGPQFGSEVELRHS

## CC(=O)N[C@@H](CO)C(=O)N[C@@H](CC(=O)O)C(=O)N[C@@H](CCCCN)C(=O)N1CCC[C@H]1C(=O)O [AcSDKP, N-acetyl-Ser-Asp-Lys-Pro] (Ac-SDKP-OH; C-terminus assumed)
Human ACE [1]
  degradation by ACE of human origin: degraded
Human ACE [2]; [4]
  remaining at 10 min, 100 nM: 90%
  remaining at 0.5 h, 100 nM: 100%
  remaining at 1 h, 100 nM: 85%
  remaining at 2 h, 100 nM: 85%
  remaining at 4 h, 100 nM: 100%
Human ACE [2]; without captopril
  remaining at 10 min, 100 nM: 82%
  remaining at 0.5 h, 100 nM: 75%
  remaining at 1 h, 100 nM: 50%
  remaining at 2 h, 100 nM: 25%
  remaining at 4 h, 100 nM: 7%
ACE (rat lung); [4]
  remaining at 1 h, 100 nM: 111%
  remaining at 2 h, 100 nM: 75%
  remaining at 4 h, 100 nM: 89%
ACE (rat lung); T30 min, without captopril
  remaining at 0.5 h, 100 nM: 28%
ACE (rat lung); without captopril
  remaining at 1 h, 100 nM: 9%
  remaining at 2 h, 100 nM: 5%
  remaining at 4 h, 100 nM: 5%
In vivo; plasma
  Vd: 0.353 L/kg
  level at time molar at 5 min: 5660 nM
  level at time molar at 10 min: 4980 nM
  level at time molar at 0.25 h: 4040 nM
  level at time molar at 1 h: 1000 nM
  level at time molar at 2 h: 218 nM
  level at time molar at 3 h: 60 nM
  level at time molar at 4 h: 22 nM
  level at time molar at 5 h: 11 nM
In vivo; plasma, 1.2 mg/kg
  level at time molar at 5 min: 1820 nM
  level at time molar at 10 min: 514 nM
  level at time molar at 0.25 h: 194 nM
  level at time molar at 0.5 h: 38 nM
  level at time molar at 1 h: 8.2 nM
  level at time molar at 2 h: 2.2 nM
In vivo; urine and plasma, 1 mg/kg
  CL renal: 11.2 mL/min/kg
In vivo; urine, 1.2 mg/kg
  dose excreted: 10.1%
[3]; Group 1, i.v. bolus, without captopril, 0-2 h, single rats
  Q in urine: 25.1 nmol and 0.0 nmol and 46.7 nmol and 0.1 nmol
[3]; Group 1, i.v. bolus, without captopril, 2-4 h, single rats
  Q in urine: 7.1 nmol and 0.0 nmol and 15.7 nmol and 36.4 nmol
[3]; Group 1, i.v. bolus, without captopril, 4-5 h, single rats
  Q in urine: 33.5 nmol and 51.3 nmol and 0.0 nmol and 14.6 nmol
[3]; Group 1, i.v. bolus, without captopril, 5-24 h, single rats
  Q in urine: 9.9 nmol and 10.2 nmol and 0.0 nmol and 20.6 nmol and 78.5 nmol
[3]; Group 1, i.v. bolus, without captopril, 24-36 h, single rats
  Q in urine: 4.1 nmol and 3.4 nmol and 15.5 nmol and 0.9 nmol
[3]; Group 1, i.v. bolus, without captopril, 36-48 h, single rats
  Q in urine: 4.0 nmol and 1.7 nmol and 3.4 nmol and 2.0 nmol and 7.9 nmol
[3]; Group 1, i.v. bolus, without captopril, 5 min, single rats
  Concentration in plasma: 2188 nM and 1759 nM and 1239 nM and 2100 nM and 1802 nM
[3]; Group 1, i.v. bolus, without captopril, 10 min, single rats
  Concentration in plasma: 729 nM and 400 nM and 265 nM and 671 nM and 508 nM
[3]; Group 1, i.v. bolus, without captopril, 15 min, single rats
  Concentration in plasma: 268 nM and 96 nM and 135 nM and 328 nM and 143 nM
[3]; Group 1, i.v. bolus, without captopril, 30 min, single rats
  Concentration in plasma: 34 nM and 14 nM and 10 nM (2×) and 121 nM
[3]; Group 1, i.v. bolus, without captopril, 60 min, single rats
  Concentration in plasma: 5 nM and 0.36 nM and 0.15 nM and 33 nM and 2 nM
[3]; Group 1, i.v. bolus, without captopril, 120 min, single rats
  Concentration in plasma: ILQ (4×) and 2 nM
[3]; Group 1, i.v. bolus, without captopril, 180 min, single rats
  Concentration in plasma: ILQ
[3]; Group 1, i.v. bolus, without captopril, 240 min, single rats
  Concentration in plasma: ILQ
[3]; Group 1, i.v. bolus, without captopril, 300 min, single rats
  Concentration in plasma: ILQ
[3]; [5]
  % excreted - endog: 7.86%
  CLR -endog: 11.21 mL/min/kg
  AUC0-inf: 17393 nM·min
  CLR: 14.52 mL/min/kg
  VD: 1.389 L/kg
  t½: 6.8 min
[3]; [6]
  % excreted - endog: 8.9% and 8.0% and 5.6% and 8.3% and 8.5%
  CLR -endog: 8.6 mL/min/kg and 11.1 mL/min/kg and 11.5 mL/min/kg and 11.8 mL/min/kg and 13.0 mL/min/kg
  AUC0-inf: 230401 nM·min and 16319 nM·min and 13026 nM·min and 18178 nM·min and 16223 nM·min
  CLR: 10.7 mL/min/kg and 12.5 mL/min/kg and 20.3 mL/min/kg and 12.8 mL/min/kg and 16.4 mL/min/kg
  Q in urine total: 83.7 nmol and 66.6 nmol and 81.3 nmol and 74.5 nmol and 86.5 nmol
  VD: 0.894 L/kg and 1.07 L/kg and 1.034 L/kg and 2.6 L/kg and 1.346 L/kg
  t½: 6.4 min and 4.7 min and 4.4 min and 12.8 min and 5.9 min
  % excreted: 1.1% and 9.4% and 10.5% and 8.9% and 10.4%
[3]; Group 2, i.v. bolus, with captopril, 0-2 h, single rats
  Q in urine: 0.0 nmol
[3]; [7]
  Concentration in urine: 126118 nM
  Q in urine: 0.2 nmol and 744.4 nmol and 820.9 nmol and 0.0 nmol and 535.3 nmol
[3]; Group 2, i.v. bolus, with captopril, 4-6 h, single rats
  Q in urine: 0.0 nmol
[3]; Group 2, i.v. bolus, with captopril, 6-24 h, single rats
  Q in urine: 504.6 nmol and 49.0 nmol and 219.7 nmol and 649.1 nmol and 202.3 nmol
[3]; Group 2, i.v. bolus, with captopril, 24-30 h, single rats
  Q in urine: 1.6 nmol and 9.6 nmol and 0.0 nmol (3×)
[3]; Group 2, i.v. bolus, with captopril, 30-48 h, single rats
  Q in urine: 8.0 nmol and 2.5 nmol and 10.6 nmol (2×) and 0.4 nmol
[3]; Group 2, i.v. bolus, with captopril, 5 min, single rats
  Concentration in plasma: 6707 nM and 5413 nM and 5511 nM and 5293 nM and 5393 nM
[3]; Group 2, i.v. bolus, with captopril, 10 min, single rats
  Concentration in plasma: 5920 nM and 4813 nM and 4288 nM and 5439 nM and 4445 nM
[3]; Group 2, i.v. bolus, with captopril, 15 min, single rats
  Concentration in plasma: 5571 nM and 4016 nM and 3399 nM and 3876 nM and 3343 nM
[3]; Group 2, i.v. bolus, with captopril, 30 min, mean
  Concentration in plasma: 2457 nM
[3]; Group 2, i.v. bolus, with captopril, 30 min, single rats
  Concentration in plasma: 2173 nM
[3]; Group 2, i.v. bolus, with captopril, 60 min, single rats
  Concentration in plasma: 1759 nM and 735 nM and 848 nM and 1069 nM and 590 nM
[3]; Group 2, i.v. bolus, with captopril, 120 min, single rats
  Concentration in plasma: 501 nM and 151 nM and 145 nM and 197 nM and 97 nM
[3]; Group 2, i.v. bolus, with captopril, 180 min, single rats
  Concentration in plasma: 159 nM and 32 nM and 39 nM and 48 nM and 21 nM
[3]; Group 2, i.v. bolus, with captopril, 240 min, single rats
  Concentration in plasma: 52 nM and 10 nM and 18 nM and 23 nM and 7 nM
[3]; Group 2, i.v. bolus, with captopril, 300 min, single rats
  Concentration in plasma: 26 nM and 9 nM and 6 nM and 11 nM and 4 nM
[3]; [8]
  % excreted - endog: 97%
  CLR -endog: 11.67 mL/min/kg
  AUC0-INF: 224742 nM·min
  CLR: 11.94 mL/min/kg
  Vd: 0.515 L/kg
  t½: 30.7 min
[3]; [9]
  % excreted - endog: 75.3% and 85.1% and 139.3% and 90.2% and 95.1%
  CLR -endog: 5.2 mL/min/kg and 13.2 mL/min/kg and 16.4 mL/min/kg and 10.1 mL/min/kg and 13.5 mL/min/kg
  AUC0-INF: 341133 nM·min and 196456 nM·min and 200683 nM·min and 217932 nM·min and 167504 nM·min
  CLR: 5.39 mL/min/kg and 13.59 mL/min/kg and 16.71 mL/min/kg and 10.09 mL/min/kg and 13.91 mL/min/kg
  Q in urine total: 514.5 nmol and 805.5 nmol and 1051.2 nmol and 649.5 nmol and 748.3 nmol
  Vd: 0.653 L/kg and 0.499 L/kg and 0.505 L/kg and 0.567 L/kg
  t½: 35.5 min and 29.2 min and 29.5 min and 31.4 min and 28.1 min
  % excreted: 78.2% and 87.7% and 142.2% and 90.4% and 97.9%
[3]; rats, in the absence of captopril
  degradation in vivo: rapidly degraded in vivo
[3]; [10]
  Renal clearance: 11.7 mL/min/kg
  T ½ life: 30.7 min
  Total clearance: 11.9 mL/min/kg
[3]; [11]
  T ½ life: 6.8 min
  Total clearance: 144.4 mL/min/kg

From patent publication US7601333B2, “Use of a tetrapeptide AcSDKP (SEQ ID No. 1) analog resistant to the angiotensin I converting enzyme for measuring glomerular filtration rate in a human or an animal and kit containing same” (Assistance Publique-Hopitaux de Paris, priority 2003, dated 2009)
